Data on 1 molecule can be found in patent US20100331363A1, “TREATMENT OF MITOCHONDRIAL DISORDERS USING A FARNESYL TRANSFERASE INHIBITOR” (Link Medicine Corporation, priority 2008, published 2010).

Structures are written as SMILES. Entries after “also recorded” stand apart in the source; their conditions may differ.

Holding throughout (type): in vivo, mouse
One test concerns Ras. As to the kind of experiment: Soluble/cytoplasmic Ras level in frontal cortex of alpha-synuclein transgenic mice. As to conditions: 0.09 mg/kg or 9 mg/kg b.i.d. 3 months vs vehicle. As to the method: The level of inhibition of Ras in brain by LNK-754-TS, dosed at an efficacious dose for efficacy in animal models of proteinopathy-dependent neurodegeneration, was investigated. Alpha-synuclein transgenic mice were treated for 3 months b.i.d. with vehicle or LNK-754-TS at 0.09 mg/kg or 9 mg/kg. Cortical tissue was extracted and homogenized, followed by isolation of soluble/cytosolic proteins in detergent-free buffer (50 mM Tris-HCl pH 7.4, 140 mM NaCl, 2 mM EDTA, Protease inhibitor cocktail) by centrifugation. 15 micrograms of protein lysate was analyzed per lane of SDS-PAGE gel, and immunoblotted for Ras and actin (FIG. 6). Densitometry was used to quantify the Ras/actin ratio for each sample, and results were plotted (FIG. 7). […] This contrasts with what is observed in xenograft cancer models, where inhibition of Ras farnesylation by high dose FTIs is directly correlated with efficacy (FIG. 3 and Example 3).

A further test concerns TAU441 transgenic mice. As to the kind of experiment: Porsolt forced swim task in TAU441 transgenic mice. The following applies: 0.09 mg/kg daily for 90 days. The text has this: Tests relevant to depression-like behaviors in rodents are primarily stress-induced reductions in avoidance or escape, termed behavioral despair. One of the most widely used animal tests for depression is the Porsolt forced swim task (Porsolt et al., Arch. Int. Pharmacodyn. Ther. 229(2):327-36, 1977; Porsolt et al., Eur. J. Pharmacol. 47(4):379-91, 1978). This study was designed to evaluate the effects of treatment with LNK-754 on behavior of TAU441 transgenic mice. At start of the treatment, the animals were 5 months old. Untreated non-transgenic animals of the same age were tested and sacrificed serving as the baseline group. Mice received vehicle or LNK-754-TS at a dose of 0.09 mg per kg, 7 days a week for 90 days. In the last week of the treatment period and before sacrifice, mice were evaluated using the Porsolt forced swim task (FIG. 10B).

The test system of another test is APP/PS1 transgenic mice. As to the kind of experiment: Morris water maze in APP/PS1 transgenic mice. As to conditions: 0.9 mg/kg once every 24 hours, vs vehicle. How it is done:
Animals and treatments: Male and female human WT alpha-synuclein over-expressing transgenic mice^32 at 6 months of age were given vehicle (10% beta-cyclodextrin) or LNK-754-TS (0.09, 0.9 and 9 mg/kg) per oral gavage twice daily for 3 months or animals at 7 months of age were given vehicle (2.5% beta-cyclodextrin) or LNK-754-TS (2 mg/kg) once every three days for 3 months. Male and female TAU transgenic mice expressing TAU441 bearing the missense mutations V337M^50 and R406W under the control of the murine Thy-1 promoter with a CB6xC57BL/6 background were 5 months old at the time when the oral treatment for three months with LNK-754-TS (0.9 and 0.09 mg/kg) as well as vehicle (2.5% beta-cyclodextrin) was started. Female human APP/PS1 (APP (London V7171)/PS1(A246E)) over-expressing transgenic mice were treated with LNK-754-TS (0.9 mg/kg) or vehicle (2.5% beta-cyclodextrin) for 2 months or 12 days.
Morris water maze (MWM) analysis of cognitive performance: In APP/PS1 transgenic animals, swimming behavior in a Morris Water Maze was videotaped and analyzed (Ethovision, Noldus, Wageningen, Netherlands). For mice, a place navigation test was used to locate the hidden platform in five blocks of three trials over three consecutive days. […] The time each mouse needed for location of the platform was measured. […] The time and path length each rat needed to locate the platform was measured. […]

`C#Cc1cccc(-c2cc(=O)n(C)c3ccc([C@](O)(c4ccc(Cl)cc4)c4cncn4C)cc23)c1` [LNK-754-TS, (R)-6-[(4-chlorophenyl)-hydroxyl-(1-methyl-1-H-imidazol-5-yl)-methyl]-4-(3-ethynylphenyl)-1-methyl-2-(1H)-quinonlinone (2S, 3S)-dihydroxybutanedioate]: in the test on Ras, the “soluble Ras/actin level in cortex” value was “No significant differences”. Besides, the “behavior compared with non-transgenic mice, forced swim task” value in the test with TAU441 transgenic mice is “behaved similar to non-transgenic mice; also recorded: behaved similarly to non-tg mice”. Further, in the test on TAU441 transgenic mice (vs vehicle), the “floating, forced swim task” value is “significantly less floating; also recorded: decreasing floating behavior” and the “struggling behavior, forced swim task” value is “higher percentage of struggling behavior; also recorded: increasing struggling behavior”. Besides, in the test with APP/PS1 transgenic mice (12 days), the “cognitive performance, Morris water maze” value is listed as “significant cognitive improvement”. Besides, the “performance in the Morris water maze” value with APP/PS1 transgenic mice (two months) is reported as “performed significantly better; also recorded: significant cognitive improvement”.
